From patent US9994852B2, “Oligonucleotide compositions and uses thereof” (MIRAGEN THERAPEUTICS, INC., priority 2015, dated 2018) come the findings set out here.

Common to all, as to type: cell-based, human
Data set [1] has as its system miR-155-5p. The data set is described as follows: Whole genome expression profiling of CTCL cell lines treated with antimiR-155. Here is the method:
To gain a more complete understanding of the molecular consequences of miR-155 inhibition in mycosis fungoides cell lines, whole genome transcriptome profiling was performed on MJ and HuT102 cell lines treated with antimiR-155 compounds 3 (SEQ ID NO: 23) or 4 (SEQ ID NO: 25) for 4 days (96 hours) or 8 days. The statistically-significant gene expression signature was defined by one-way ANOVA for antimiR-treated cells compared to untreated cells at the same time point. […] The fold-change results are shown in FIGS. 9 and 10 as heat maps, as described for FIG. 2.
The gene expression profile common to both cell lines and both compounds at Day 4 was analyzed for the enrichment of miR-155-5p seed-matched gene targets (8-, 7-, and 6-nucleotide binding sites). The fold-change of these genes is represented in a heat map in FIG. 11. […] The gene signature was also analyzed using the DAVID bioinformatic resource for functional gene annotation enrichment (Huang da et al., 2009). There was no significant enrichment of Gene Ontology database terms as defined by a Benjamini-corrected p-value of <0.01.
The gene expression signature common to both cell lines and both compounds at Day 8 (677 genes in total) was subjected to analysis for enrichment of seed-matched gene targets and for functional gene annotation.
The activity of antimiR-155 compound 4 (SEQ ID NO: 25) was further investigated by treating the third mycosis fungoides cell line, MyLa, with compound 4 (SEQ ID NO: 25) for 4 days and 8 days and profiling the changes in gene expression. To test the specificity of compound 4 (SEQ ID NO: 25), cells of the Sézary syndrome cell line (HuT78) were treated with compound 4 (SEQ ID NO: 25) for 8 days and the changes in gene expression were profiled. Genes that are statistically changed with a false discovery rate (FDR) corrected p-value of <0.05 in response to compound 4 (SEQ ID NO: 25) in three mycosis fungoides cell lines, HuT102, MJ, and My-La, are depicted in the heat map as described above. The total number of genes in the heat map is 324. […]

Data set [2] concerns My-La cells. Kind of data set: Caspase 3/7 activity in My-La cells. The conditions noted are these: over time. Here is the method:
(§1) FIGS. 17A and 17B show proliferation and activation of caspase 3/7 over time with compounds 3 (SEQ ID NO: 23) and 4 (SEQ ID NO: 25).
(§2) In addition to a time course, a dose titration of antimiR-155 compounds in My-La cells was performed with ATP and caspase 3/7 measurements after eight days of treatment (FIGS. 18A and 18B, respectively).

The subject of data set [3] is HuT102 cells. Kind of data set: Apoptosis by caspase 3/7 activity in HuT102 cells. The note with it: for apoptosis (caspase 3/7 activity normalized to ATP): over time. Here is the method: (§3) Since the level of ATP correlates directly with cell number, ATP was measured to determine the cell number. […] The reduction in cell number was accompanied by an increase in apoptosis as measured by caspase 3/7 activity (FIG. 14B). The caspase 3 and 7 proteins are members of the cysteine aspartic acid-specific protease (caspase) family. The caspase family plays key effector roles in apoptosis in mammalian cells. Caspase activity was normalized to ATP levels, as all cells have a low level of basal caspase activity that can confound the results if not normalized appropriately.
(§4) In addition to a time course, a dose titration of antimiR-155 compounds in HuT102 cells was performed with ATP and caspase 3/7 measurements performed after eight days of treatment (FIGS. 15A and 15B, respectively).

The subject of data set [4] is HuT102 cells. Kind of data set: Proliferation of HuT102 cells (cell number by ATP level). The note with it: for proliferation (cell number by ATP): over time. Here is the method:
as §3, §4

In data set [5] the test system is HuT102 cells. Kind of data set: AntimiR-155 combined with HDAC inhibitor SAHA: caspase 3/7 activity in HuT102 cells. The conditions noted are these: 10 μM compound combined with 0.25 or 0.5 μM SAHA. The procedure: Vorinostat (chemical name: SAHA) is a standard-of-care epigenetic therapy for patients with advanced mycosis fungoides. However, the side-effects of pan-HDAC inhibitors are well-described. To determine whether a combination therapy might show enhanced activity compared to treatment with individual compounds, HuT102 cells were treated with a sub-efficacious dose of SAHA combined with antimiR-155.
HuT102 cells were treated with 0.25 μM SAHA and 10 μM compound 3 (SEQ ID NO: 23) or 4 (SEQ ID NO: 25), individually or in combination. Cells were harvested daily to measure ATP levels and caspase 3/7 activity. A similar experiment was performed with 0.50 μM SAHA.
FIGS. 20A and 20B show the effect on caspase 3/7 activity.

The test system of data set [6] is My-La cells. Kind of data set: Proliferation of My-La cells (ATP). The procedure:
as §1, §2

In data set [7] the test system is miR-155-5p. Kind of data set: Real time PCR of miR-155 direct target genes in CTCL cell lines treated with antimiR-155 (passive uptake). The note with it: for target de-repression: HuT102 and MyLa cell lines; for gene expression signature of four direct targets of miR-155-5p vs untreated cells: MJ and HuT102 cells, 72 hours; for gene expression signature of four direct targets of miR-155-5p vs untreated cells / antimiR activity by four-gene signature (Bach1, Jarid2, Picalm, Ship1): 10 μM; for antimiR activity by four-gene signature (Bach1, Jarid2, Picalm, Ship1): cumulative data across 2 μM, 50 μM and three mycosis fungoides cell lines. Here is the method:
CTCL cell lines were cultured in complete growth medium with the addition of antimiR-155 compound 1 (SEQ ID NO: 27), compound 2 (SEQ ID NO: 22), compound 3 (SEQ ID NO: 23), and compound 4 (SEQ ID NO: 25) at concentrations ranging from 2 μM to 50 μM. The antimiRs were added to the medium without any additional components to enhance cellular uptake. Cells were harvested after 72 hours of treatment and total RNA was purified. Real time PCR was performed for 13 direct gene targets of miR-155 (Worm et al. 2009; O'Connell et al. 2010; Zhang et al. 2012; and miRagen unpublished data). The relative fold-change in the expression of the 13 genes in the antimiR-treated cells compared to the untreated cells was calculated. […] Four predicted direct targets that lacked expression in at least one cell line were omitted. The gene expression fold-changes were log 10-transformed, plotted on a grayscale, representing the highest relative increase in gene expression, and conversely, the greatest reduction in gene expression.
Four direct gene targets of miR-155-5p (Bach1, Jarid2, Picalm, and Ship1) were chosen for additional analysis, as these four genes were modulated by antimiR-155 in all three mycosis fungoides cell lines (MJ, HuT102, and My-La). These genes were chosen to represent the gene expression signature for antimiR activity in vitro. Additionally, the four-gene signature was used to compare the activity of the antimiR compounds. These gene changes were reproducible over three independent experiments with cells of varying passage numbers. FIGS. 3, 4, 5, 6, and 7 show the fold-change results of this four-gene signature in the HuT102, MJ, HH, My-La, and Hut78 cell lines, respectively. * p-value<0.0001 vs untreated by nonparametric Mann-Whitney test. The Mann-Whitney test was chosen because the variances are unequal between the treatments compared to untreated cells.
The control oligonucleotide was a 14-nucleotide antimiR targeting a C. elegans miRNA not expressed in mammals (control 1). The second oligo is a scramble of the 14-nucleotide sequence of antimiR-155 compound 4 (control 2). The MJ and HuT102 cell lines were incubated with 10 μM antimiR-155 compounds 3 (SEQ ID NO: 23) or 4 (SEQ ID NO: 25) or the two control oligos for 72 hours.
For orientation: Quantitative PCR measures a nucleic acid by following its amplification.

Another data set deals with miR-155. The data set is described as follows: Dual luciferase reporter assay with miR-155 binding site in HeLa cells. The conditions noted are these: 10 nM miR-155 mimic, 2 nM oligonucleotide. The text has this:
To assess the activity of a miR-155 inhibitor, a dual luciferase reporter assay system was used. In brief, the binding site for miR-155 was cloned into the 3′ UTR of the Renilla luciferase gene located within the commercially-available psiCHECK-2 vector system (Promega). In the absence of a miR-155 inhibitor, the expression of Renilla luciferase protein is repressed by a miR-155 mimic. In the presence of a miR-155 inhibitor, the expression of Renilla luciferase protein is de-repressed. […] Expression of either Renilla or firefly luciferase is measured through detection of light emitted by the luciferase protein.
50 ng of the dual luciferase reporter plasmid containing the miR-155 binding site was transfected into HeLa cells without a miR-155 mimic (“Reporter” only), with 10 nM miR-155 mimic (“Reporter+mimic”), with 10 nM miR-155 mimic and 2 nM of the control oligonucleotide, or with 10 nM miR-155 mimic and 2 nM of a test miR-155 oligonucleotide inhibitor of 11-14 nucleotide lengths (Table 4). The miR-155 mimic was purchased from Dharmacon (miRIDIAN microRNA Human hsa-miR-155-5p mimic; Accession number MIMAT0000646; catalog # C-300647-05-0005) and contains the mature miRNA sequence: -[…]- (SEQ ID NO: 121). The control oligonucleotide used in the experiment had the following sequence: 5′-lCs.dTs.dAs.lGs.dAs.lAs.dAs.lGslAs.dGs.lTs.dAs.lGs.lA-3′ (SEQ ID NO: 122).

“Also recorded” adds a separate entry of the source. l = locked nucleic acid (LNA); d = 2'-deoxy (DNA)

With “5′-lCs.dAs.lCs.dGs.dAs.lTs.lTs.dAs.lGs.dCs.lAs.lTs.lTs.lA-3′ (CACGATTAGCATTA; sugars from the 5' end ldlddlldldllll, all phosphorothioate, methylation of C not given here) [compound 4]”, in the data set with miR-155-5p [1] (HuT102, MJ, MyLa, Day 4 or Day 8), the “number of genes up- or down-regulated in all three mycosis fungoides cell lines (Table 2)” value came out at 587. For the same substance, in the data set with miR-155-5p [1] (MJ and HuT102 cells, 4 days and 8 days), the “magnitude of gene regulation (whole genome heat map)” value was “greater magnitude of gene regulation in both cell lines and at both time points”. Moreover, the “change in gene expression” value with miR-155-5p [1] (Sézary syndrome cell line HuT78, 8 days) was “did not show much change in the gene expression”. Besides, in the data set on My-La cells [2], the “activation of caspase 3/7” value is “greater apoptotic activity; also recorded: greater activity compared to compound 3 (SEQ ID NO: 23)”. Besides, the “caspase 3/7 activity” value with HuT102 cells [3] (day 8 of treatment) is on record as “confirm the inhibitory potential”. Also, the “apoptosis (caspase 3/7 activity normalized to ATP)” value in the data set with HuT102 cells [3] was “greater apoptotic activity”; in the data set on HuT102 cells [3] (listed as Compound 4) it was “greater induction of apoptosis than bexarotene”. In addition, the “proliferation (ATP)” value is recorded as “confirm the inhibitory potential” in the data set with HuT102 cells [4] (day 8 of treatment); “further confirm the inhibitory potential” in the data set with My-La cells [6] (dose titration, eight days of treatment); “greater inhibition of proliferation; also recorded: greater activity compared to compound 3 (SEQ ID NO: 23)” in the data set on My-La cells [6] (over time). Also, in the data set on HuT102 cells [4], the “proliferation (cell number by ATP)” value is listed as “greater inhibition of proliferation; also recorded: comparable to that seen with bexarotene”. In addition, the “apoptosis (caspase 3/7 activity)” value in the data set with HuT102 cells [5] was “increased apoptosis compared to each treatment alone”. For the same substance, the target de-repression result with miR-155-5p [7] is reported as “greater target de-repression than antimiR-155 compound 3 (SEQ ID NO: 23)”. Moreover, the “gene expression signature of four direct targets of miR-155-5p vs untreated cells” value with miR-155-5p [7] is “statistically significantly different from that of untreated cells”. In addition, the “antimiR activity by four-gene signature (Bach1, Jarid2, Picalm, Ship1)” value in the data set with miR-155-5p [7] is “more active than compounds 1 (SEQ ID NO: 27) and 3 (SEQ ID NO: 23)”.
For the substance “5′-lCs.dGs.lAs.lTs.lTs.dAs.lGs.dCs.lAs.lTs.lTs.lA-3′ (CGATTAGCATTA; sugars from the 5' end ldllldldllll, all phosphorothioate, methylation of C not given here) [compound 3]”, the “gene expression signature of four direct targets of miR-155-5p vs untreated cells” value with miR-155-5p [7] was “statistically significantly different from that of untreated cells”.
Regarding “5′-lCs.dGs.lAs.lTs.lTs.lAs.lGs.dCs.lAs.lTs.lTs.lA-3′ (CGATTAGCATTA; sugars from the 5' end l1 d1 l5 d1 l4, all phosphorothioate, methylation of C not given here) [compound 2]”, in the data set on My-La cells [2], the “activation of caspase 3/7” value was “greater apoptotic activity”. Also, in the data set on HuT102 cells [3], the “apoptosis (caspase 3/7 activity normalized to ATP)” value was “greater apoptotic activity”. In addition, in the data set on HuT102 cells [4], the “proliferation (cell number by ATP)” value is recorded as “greater inhibition of proliferation”. Further, the “proliferation (ATP)” value with My-La cells [6] (over time) is given as “greater inhibition of proliferation”. Also, in the data set with miR-155-5p [7], the target de-repression entry is “greater target de-repression than antimiR-155 compound 3 (SEQ ID NO: 23)”; the “antimiR activity by four-gene signature (Bach1, Jarid2, Picalm, Ship1)” value is “more active than compounds 1 (SEQ ID NO: 27) and 3 (SEQ ID NO: 23)”.
For the substance “5′-lCs.dTs.dAs.lGs.dAs.lAs.dAs.lGslAs.dGs.lTs.dAs.lGs.lA-3′ (CTAGAAAGAGTAGA; sugars from the 5' end lddldldlldldll, all phosphorothioate, methylation of C not given here) [control oligonucleotide, control oligonucleotide used in the dual luciferase reporter experiment]”, the “de-repression of Renilla luciferase expression” value in the data set on miR-155 is “did not de-repress the expression of luciferase”.
